Values joined by “and” are separate entries in the source; they are usually repeats but may differ in a detail not shown here. Equal entries are not always repeated.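 Following 48 hours of exposure in 96-well plates, responses at five concentrations were used to interpolate endpoints linearly. GI50 marks 50% less growth. At the TGI there is no net growth.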
Assays:
Experiment in all cases: NCI tumour cell line growth inhibition, 48 h
[1] = test system: CAKI-1 renal
[2] = test system: DU-145 prostate
[3] = test system: HOP-92 NSCLC
[4] = test system: HT29 colon
[5] = test system: MDA-MB-231 breast
[6] = test system: SF-295 CNS
[7] = test system: SK-MEL-5 melanoma
[8] = test system: SK-OV-3 ovarian
[9] = test system: SNB-75 CNS
[10] = test system: UO-31 renal

`O=C1OC(CN2CCOCC2)CN1/N=C/c1ccc([N+](=O)[O-])o1` (centres undefined) was tested, and the TGI [1] was over 100 µM, the TGI [2] was over 100 µM and the TGI [3] was over 100 µM. It also gave a TGI [4] of over 100 µM, a TGI [5] of over 100 µM and a TGI [6] of over 100 µM. It also gave a TGI [7] of 63 µM, a TGI [8] of over 100 µM and a TGI [9] of over 100 µM. For the same molecule, the TGI [10] was over 100 µM.
`Cc1cccc2c(N)c3ccccc3nc12` gave a GI50 [1] of 0.966 µM, a TGI [1] of 11.6 µM and a GI50 [2] of 1530 nM. For the same molecule, the TGI [2] was 12.3 µM, the GI50 [3] was 2180 nM and the TGI [3] was 6.05 µM. For the same molecule, the GI50 [4] was 593 nM, the TGI [4] was 3.58 µM and the GI50 [5] was 1.26 µM. The TGI [5] was 5.26 µM, the GI50 [6] was 1670 nM and the TGI [6] was 10.4 µM. The GI50 [7] was 1770 nM, the TGI [7] was 3.26 µM and the GI50 [8] was 2120 nM. It also gave a TGI [8] of 17.4 µM, a GI50 [9] of 1470 nM and a TGI [9] of 4.14 µM. The GI50 [10] was 0.595 µM and the TGI [10] was 6.09 µM.
Molecule `CC(=O)Oc1ccc(C(c2ccc(OC(C)=O)cc2)c2ccccn2)cc1` has a GI50 [1] of 46.8 µM, a TGI [1] of over 100 µM and a GI50 [2] of 98200 nM. The TGI [2] was over 100 µM, the GI50 [3] was 861 nM and the TGI [3] was 34.3 µM and > 94.1 µM. The TGI [4] was over 100 µM, the GI50 [5] was 48 µM and the TGI [5] was over 100 µM. It also gave a GI50 [6] of 37100 nM, a TGI [6] of over 100 µM and a GI50 [7] of 31800 nM. For the same molecule, the TGI [7] was over 100 µM, the GI50 [8] was 31700 nM and the TGI [8] was > 100 µM and 98.3 µM. For the same molecule, the GI50 [9] was 24800 nM, the TGI [9] was over 100 µM and the GI50 [10] was 21.4 µM. For the same molecule, the TGI [10] was over 100 µM.
Work on `O=C1OC(c2ccccc2)=N/C1=C\c1cccc(F)c1` yielded a TGI [1] of over 100 µM, a TGI [2] of over 100 µM and a TGI [3] of over 100 µM. It also gave a TGI [4] of over 100 µM, a TGI [5] of over 100 µM and a TGI [6] of over 100 µM. For the same molecule, the TGI [7] was over 100 µM, the TGI [8] was over 100 µM and the TGI [9] was over 100 µM. It also gave a TGI [10] of over 100 µM.
Work on `Cn1cnc([N+](=O)[O-])c1Sc1ncn[nH]1` yielded a GI50 [1] of 30.7 µM, a TGI [1] of over 100 µM and a GI50 [2] of 63400 nM. For the same molecule, the TGI [2] was over 100 µM, the GI50 [3] was 29200 nM and the TGI [3] was over 100 µM. It also gave a GI50 [4] of over 100000 nM, a TGI [4] of over 100 µM and a GI50 [5] of over 100 µM. It also gave a TGI [5] of over 100 µM, a GI50 [6] of over 100000 nM and a TGI [6] of over 100 µM. The GI50 [7] was over 100000 nM, the TGI [7] was over 100 µM and the GI50 [8] was over 100000 nM. The TGI [8] was over 100 µM, the GI50 [9] was over 100000 nM and the TGI [9] was over 100 µM. The GI50 [10] was 35.2 µM and the TGI [10] was over 100 µM.
`Cc1cc2c(cc1N)C(C)C1(CCC(=O)N2Cc2ccccc2)OCCO1` (centres undefined) showed a TGI [1] of over 100 µM, a TGI [2] of over 100 µM and a TGI [3] of over 100 µM. For the same molecule, the TGI [4] was over 100 µM, the TGI [5] was over 100 µM and the TGI [6] was over 100 µM. The TGI [7] was over 100 µM, the TGI [8] was over 100 µM and the TGI [9] was over 100 µM. It also gave a TGI [10] of over 100 µM.
In the case of `O=C1CC(c2ccc(Cl)cc2)Oc2ccccc21` (centres undefined), the TGI [1] is reported as 77.3 µM, the TGI [2] is reported as over 100 µM and the TGI [3] is reported as 56.5 µM. It also gave a TGI [4] of 21.2 µM, a TGI [5] of 53.9 µM and a TGI [6] of over 100 µM. For the same molecule, the TGI [7] was 27.3 µM, the TGI [8] was 61 µM and the TGI [9] was 50.1 µM. It also gave a TGI [10] of over 100 µM.
Molecule `COc1ccc(C2=CC(c3ccc(OC)c(OC)c3)c3c(c4ccccc4oc3=O)O2)cc1OC` (centres undefined) has a GI50 [1] of 1.67 µM, a TGI [1] of over 100 µM and a GI50 [2] of 1730 nM. For the same molecule, the TGI [2] was over 30.7 µM, the GI50 [3] was 4800 nM and the TGI [3] was over 100 µM. It also gave a GI50 [4] of 822 nM, a TGI [4] of 31 µM and a GI50 [5] of 3.46 µM. It also gave a TGI [5] of over 51.4 µM, a GI50 [6] of 442 nM and a TGI [6] of over 100 µM. For the same molecule, the GI50 [7] was 363 nM, the TGI [7] was over 25.4 µM and the GI50 [8] was 2680 nM. The TGI [8] was over 100 µM, the GI50 [9] was 341 nM and the TGI [9] was 2.17 µM. The GI50 [10] was 1.58 µM and the TGI [10] was over 100 µM.
Work on `C=C1[C@@H]([C@@]2(C)C=CC(=O)C(C)(C)[C@@H]2CC(=O)OC)CC[C@@]2(C)C(c3ccoc3)OC(=O)[C@H]3O[C@]132` (some centres undefined) yielded a TGI [1] of over 100 µM, a TGI [2] of over 100 µM and a TGI [3] of over 100 µM. The TGI [4] was over 100 µM, the TGI [5] was over 100 µM and the TGI [6] was over 100 µM. For the same molecule, the TGI [7] was over 100 µM, the TGI [8] was over 100 µM and the TGI [9] was over 100 µM. It also gave a TGI [10] of over 100 µM.
In the case of `Cn1c(=O)c(Oc2ccc(F)cc2F)cc2cnc(NCCS(C)(=O)=O)nc21`, the GI50 [1] is reported as over 25 µM, the TGI [1] is reported as over 25 µM and the GI50 [2] is reported as over 25000 nM. For the same molecule, the TGI [2] was over 25 µM, the GI50 [3] was over 25000 nM and the TGI [3] was over 25 µM. The GI50 [4] was over 25000 nM, the TGI [4] was over 25 µM and the GI50 [5] was over 25 µM. It also gave a TGI [5] of over 25 µM, a GI50 [6] of over 25000 nM and a TGI [6] of over 25 µM. The GI50 [7] was over 25000 nM, the TGI [7] was over 25 µM and the GI50 [8] was over 25000 nM. For the same molecule, the TGI [8] was over 25 µM, the GI50 [9] was over 25000 nM and the TGI [9] was over 25 µM. The GI50 [10] was over 25 µM and the TGI [10] was over 25 µM.
With `CCn1c2ccccc2c2cc(C(O)c3cccc4ncccc34)ccc21` (centres undefined) the GI50 [1] was 0.0425 µM, the TGI [1] was over 100 µM and the GI50 [2] was 82.8 nM. It also gave a TGI [2] of 4.78 µM, a GI50 [3] of 32.4 nM and a TGI [3] of 4.98 µM. The GI50 [4] was 35.7 nM, the TGI [4] was 1.66 µM and the GI50 [5] was 0.128 µM. The TGI [5] was 11.4 µM, the GI50 [6] was 33.5 nM and the TGI [6] was 22.1 µM. For the same molecule, the GI50 [7] was 46.5 nM, the TGI [7] was 1.57 µM and the GI50 [8] was 54.5 nM. The TGI [8] was over 100 µM, the GI50 [9] was 25.4 nM and the TGI [9] was 34.1 µM. For the same molecule, the GI50 [10] was 0.285 µM and the TGI [10] was over 100 µM.
Work on `COc1cc(/C=C/C(=O)c2cccnc2Nc2ccc(F)cc2)cc(OC)c1OC` yielded a GI50 [1] of 3.68 µM, a TGI [1] of 39.5 µM and a GI50 [2] of 3320 nM. The TGI [2] was 12.4 µM, the GI50 [3] was 1670 nM and the TGI [3] was 5.65 µM. For the same molecule, the GI50 [4] was 2750 nM, the TGI [4] was 6.69 µM and the GI50 [5] was 3.07 µM. For the same molecule, the TGI [5] was 11.8 µM, the GI50 [6] was 4160 nM and the TGI [6] was 69.4 µM. It also gave a GI50 [7] of 2510 nM, a TGI [7] of 8.24 µM and a GI50 [8] of 3100 nM. For the same molecule, the TGI [8] was 8.67 µM, the GI50 [9] was 1930 nM and the TGI [9] was 8.51 µM. For the same molecule, the GI50 [10] was 5.62 µM and the TGI [10] was 48 µM.
`CC(C)CCN[C@@H]1CCc2cc(O)c(N3CC(=O)NS3(=O)=O)c(F)c2C1` showed a GI50 [1] of 3.41 µM, a TGI [1] of over 100 µM and a GI50 [2] of over 100000 nM. The TGI [2] was over 100 µM, the GI50 [3] was 16100 nM and the TGI [3] was over 100 µM. For the same molecule, the GI50 [4] was over 100000 nM, the TGI [4] was over 100 µM and the GI50 [5] was over 100 µM. For the same molecule, the TGI [5] was over 100 µM, the GI50 [6] was over 100000 nM and the TGI [6] was over 100 µM. For the same molecule, the GI50 [7] was over 100000 nM, the TGI [7] was over 100 µM and the GI50 [8] was over 100000 nM. For the same molecule, the TGI [8] was over 100 µM, the GI50 [9] was 1170 nM and the TGI [9] was over 100 µM. The GI50 [10] was 16.8 µM and the TGI [10] was over 100 µM.
Molecule `CC(C)COC(=O)c1ccc2[nH]c(O)c(C=Nc3ccc(S(N)(=O)=O)cc3)c2c1` has a GI50 [1] of 2.86 µM, a TGI [1] of 16.7 µM and a GI50 [2] of 805 nM. The TGI [2] was 3.8 µM, the GI50 [3] was 1450 nM and the TGI [3] was 4.22 µM. It also gave a GI50 [4] of 1630 nM, a TGI [4] of 5.21 µM and a GI50 [5] of 0.915 µM. It also gave a TGI [5] of 6.76 µM, a GI50 [6] of 1770 nM and a TGI [6] of 8.46 µM. For the same molecule, the GI50 [7] was 1650 nM, the TGI [7] was 4.46 µM and the GI50 [8] was 2190 nM. It also gave a TGI [8] of 6.25 µM, a GI50 [9] of 1770 nM and a TGI [9] of 5.15 µM. It also gave a GI50 [10] of 2.44 µM and a TGI [10] of 10.2 µM.
